The values below come from patent publication US11091522B2, “Peptidomimetic macrocycles and uses thereof” (priority 2018, dated 2021).

As a reminder, the IC50 is the point on the concentration scale where inhibition reaches its midpoint. The term Ki denotes the equilibrium dissociation constant of an inhibitor or competing ligand from its target.

Read-outs that look alike come from different tables or passages of the source. Bridge positions count the residues as written; N and C are the ends. Square brackets hold non-standard residues; d marks the D form. Peptide text beside a SMILES is read from it. R8 = C=CCCCCCC[C@@](C)(N)C(=O)O; S5 = C=CCCC[C@](C)(N)C(=O)O; Nle = CCCC[C@H](N)C(=O)O; Aib = CC(C)(N)C(=O)O

Data set [1] is described as follows: Circular dichroism (CD) analysis of alpha-helicity. The class given is physicochemical. To be noted: difference 50% TFE minus benign. On the procedure:
Peptide solutions were analyzed by CD spectroscopy using a spectropolarimeter. A temperature controller was used to maintain temperature control of the optical cell. Results are expressed as mean molar ellipticity [θ] (deg cm^2 dmol^−1) as calculated from the equation [θ]=θobs·MRW/10*l*c where θobs is the observed ellipticity in millidegrees, MRW is the mean residue weight of the peptide (peptide molecular weight/number of residues), 1 is the optical path length of the cell in centimeters, and c is the peptide concentration in mg/ml. Peptide concentrations were determined by amino acid analysis. Stock solutions of peptides were prepared in benign CD buffer (20 mM phosphoric acid, pH 2). The stock solutions were used to prepare peptide solutions of 0.05 mg/ml in either benign CD buffer or CD buffer with 50% trifluoroethanol (TFE) for analyses in a 10 mm path length cell. Variable wavelength measurements of peptide solutions were scanned at 4° C. from 195 to 250 nm, in 0.2 nm increments, and a scan rate 50 nm per minute. The average of six scans is reported.
Background: Circular dichroism is the unequal absorption of left and right circularly polarised light.

The next data set addresses T1, MDMX (Homo sapiens, UniProt O15151).
T1 sequence (O15151 1-125): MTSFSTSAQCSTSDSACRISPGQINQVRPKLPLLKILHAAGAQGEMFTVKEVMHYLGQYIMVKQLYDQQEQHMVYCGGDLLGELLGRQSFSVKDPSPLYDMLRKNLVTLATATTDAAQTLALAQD
The data set can be described thus: Competitive fluorescence polarization assay for MDMX. In kind it is binding. (Fluorescence polarisation rises when a labelled molecule tumbles more slowly, as on binding a larger partner.)

A further data set concerns the target MDM2 (Homo sapiens, UniProt Q00987). Put plainly: Competitive fluorescence polarization assay for MDM2. The class given is binding.
Setting [2] is: competitive fluorescence polarization, MDMX, read-out: Ki (MDMX).
The mark [3] stands for this setting: competitive fluorescence polarization, MDM2, read-out: Ki (MDM2).

MDM2, sequence (Q00987 1-125): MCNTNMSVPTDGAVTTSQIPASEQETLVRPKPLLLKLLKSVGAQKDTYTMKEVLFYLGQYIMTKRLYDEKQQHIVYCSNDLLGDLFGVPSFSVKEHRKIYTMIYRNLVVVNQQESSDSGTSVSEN
Protocol for MDM2: 1 mM of FAM-labeled linear peptide (in 100% DMSO) was diluted to 100 μM with DMSO (dilution 1:10). Then, diluted solution was further diluted from 100 μM to 10 μM with water (dilution 1:10), and diluted again with FP buffer from 10 μM to 40 nM (dilution 1:250). […] The diluted FAM-labeled peptides were kept in the dark until use.
Unlabeled peptide dose plates were prepared with FP buffer starting with 1 μM (final) of the peptide. […] 10 mM of the solution (in 100% DMSO) with DMSO to 5 mM (dilution 1:2); dilution from 5 mM to 500 μM with H2O (dilution 1:10); and dilution with FP buffer from 500 μM to 20 μM (dilution 1:25). […] 10 μl of 10 nM (4×) of FAM-labeled peptide was added into each well, and the wells were incubated for 3 h before being read.
Protocol for MDMX: MDMX (40 kD) was diluted into FP buffer (high-salt buffer 200 mM NaCl, 5 mM CHAPS, pH 7.5) to make a 300 nM (2×) working stock solution. 20 μl of the 300 nM (2×) of protein stock solution was added into each well of 96-well black microplate. 1 mM (in 100% DMSO) of a FAM-labeled linear peptide was diluted with DMSO to a concentration of 100 μM (dilution 1:10). The solution was diluted from 100 M to 10 M with water (dilution 1:10), and diluted further with FP buffer from 10 μM to 40 nM (dilution 1:250). […] The diluted FAM-labeled peptide was kept in the dark until use. An unlabeled peptide dose plate was prepared with FP buffer starting with a concentration of 5 μM (final) of a peptide. […] 10 mM (in 100% DMSO) of the solution was diluted with DMSO to prepare a 5 mM (dilution 1:2) solution. The solution was diluted from 5 mM to 500 μM with H2O (dilution 1:10), and diluted further with FP buffer from 500 μM to 20 μM (dilution 1:25). […] 10 μl of the serially diluted unlabeled peptides were added to each well, which was filled with 20 μl of the 300 nM protein solution. 10 μl of the 10 nM (4×) FAM-labeled peptide solution was added into each well, and the wells were incubated for 3 h before reading.

As to `CC(=O)N[C@@H](CC(C)C)C(=O)N[C@H](C(=O)N[C@@H](Cc1ccccc1)C(=O)N[C@]1(C)CCCCCCC=CCCC[C@@](C)(C(=O)N[C@@H](C)C(=O)N[C@@H](C)C(=O)N[C@@H](C)C(=O)N[C@H](C)C(N)=O)NC(=O)[C@H](CC(C)C)NC(=O)[C@H](CCC(N)=O)NC(=O)[C@H](C)NC(=O)[C@H](Cc2c[nH]c3ccccc23)NC(=O)[C@H](Cc2ccc(O)cc2)NC(=O)[C@H](C)NC1=O)[C@@H](C)O` (single isomer, unassigned) [compound 230], the “Molar Ellipticity TFE-Molar Ellipticity Benign” value in data set [1] is reported as −17760.8 deg cm^2 dmol^−1.

As for `CC(=O)N[C@@H](CC(C)C)C(=O)N[C@H](C(=O)N[C@@H](Cc1ccccc1)C(=O)N[C@]1(C)CCCCCCC=CCCC[C@@](C)(C(=O)N[C@@H](CO)C(=O)N[C@@H](C)C(=O)N[C@@H](Cc2ccccc2)C(N)=O)NC(=O)[C@H](CC(C)C)NC(=O)[C@H](CCC(N)=O)NC(=O)[C@H](C)NC(=O)[C@H](Cc2c[nH]c3ccccc23)NC(=O)[C@H](Cc2ccc(O)cc2)NC(=O)[C@H](C)NC1=O)[C@@H](C)O` [compound 7] (Ac-LTF[R8]AYWAQL[S5]SAF-NH2; staple 4-11), the “Molar Ellipticity TFE-Molar Ellipticity Benign” value in data set [1] is reported as −20045.4 deg cm^2 dmol^−1.

With `CC(=O)N[C@@H](CC(C)C)C(=O)N[C@H](C(=O)N[C@@H](Cc1ccccc1)C(=O)N[C@]1(C)CCCCCCC=CCCC[C@@](C)(C(=O)N[C@@H](CO)C(=O)N[C@@H](C)C(=O)N[C@@H](C)C(N)=O)NC(=O)[C@H](CC(C)C)NC(=O)[C@H](CCC(N)=O)NC(=O)[C@H](C)NC(=O)[C@H](Cc2c[nH]c3ccccc23)NC(=O)[C@H](Cc2ccc(O)cc2)NC(=O)[C@H](C)NC1=O)[C@@H](C)O` [compound 11] (Ac-LTF[R8]AYWAQL[S5]SAA-NH2; staple 4-11), in data set [1], the “Molar Ellipticity TFE-Molar Ellipticity Benign” value came out at 16225.2 deg cm^2 dmol^−1.

Regarding `CCCC[C@H](NC(=O)[C@H](CCC(N)=O)NC(=O)[C@H](CCC(N)=O)NC(=O)[C@]1(C)CCCC=CCCCCCC[C@@](C)(NC(=O)[C@H](Cc2ccccc2)NC(C)=O)C(=O)N[C@@H](C)C(=O)N[C@@H](Cc2ccc(O)cc2)C(=O)N[C@@H](Cc2c[nH]c3ccccc23)C(=O)N[C@@H]([C@@H](C)O)C(=O)N[C@@H](C)C(=O)N[C@@H](CC(C)C)C(=O)N1)C(=O)N[C@@H](C(N)=O)C(C)C` [compound 41] (Ac-F[R8]AYWTAL[S5]QQ[Nle][dV]-NH2; staple 2-9), the “Molar Ellipticity TFE-Molar Ellipticity Benign” value in data set [1] was 20410.4 deg cm^2 dmol^−1.

Consider `CC(=O)N[C@@H](CC(C)C)C(=O)N[C@H](C(=O)N[C@@H](Cc1ccccc1)C(=O)N[C@]1(C)CCCCCCC=CCCC[C@@](C)(C(=O)N[C@@H](Cc2c[nH]cn2)C(=O)N[C@@H](Cc2c[nH]cn2)C(=O)N[C@@H](CC(C)C)C(=O)N[C@H](C)C(N)=O)NC(=O)[C@H](CC(C)C)NC(=O)[C@H](CCC(N)=O)NC(=O)[C@H](C)NC(=O)[C@H](Cc2c[nH]c3ccccc23)NC(=O)[C@H](Cc2ccc(O)cc2)NC(=O)[C@H](C)NC1=O)[C@@H](C)O` [compound 43] (Ac-LTF[R8]AYWAQL[S5]HHL[dA]-NH2; staple 4-11), for which the “Molar Ellipticity TFE-Molar Ellipticity Benign” value in data set [1] was 2912.9 deg cm^2 dmol^−1.

Take `CCCC[C@H](NC(=O)[C@H](C)NC(=O)[C@H](C)NC(=O)[C@]1(C)CCC/C=C/CCCCCC[C@@](C)(NC(=O)[C@H](Cc2ccccc2)NC(=O)[C@@H](NC(=O)[C@H](CC(C)C)NC(C)=O)[C@@H](C)O)C(=O)N[C@@H](C)C(=O)N[C@@H](Cc2ccc(O)cc2)C(=O)N[C@@H](Cc2c[nH]c3ccccc23)C(=O)N[C@@H](C)C(=O)N[C@@H](CCC(N)=O)C(=O)N[C@@H](CC(C)C)C(=O)N1)C(=O)N[C@@H](C)C(N)=O` [compound 69]: the “Molar Ellipticity TFE-Molar Ellipticity Benign” value in data set [1] is −21407.1 deg cm^2 dmol^−1.

Regarding `CC[C@H](C)[C@H](NC(=O)[C@H](C)NC(=O)[C@H](C)NC(=O)[C@]1(C)CCC/C=C/CCCCCC[C@@](C)(NC(=O)[C@H](Cc2ccccc2)NC(=O)[C@@H](NC(=O)[C@H](CC(C)C)NC(C)=O)[C@@H](C)O)C(=O)N[C@@H](C)C(=O)N[C@@H](Cc2ccc(O)cc2)C(=O)N[C@@H](Cc2c[nH]c3ccccc23)C(=O)N[C@@H](C)C(=O)N[C@@H](CCC(N)=O)C(=O)N[C@@H](CC(C)C)C(=O)N1)C(=O)N[C@H](C)C(N)=O` [compound 71], in data set [1], the “Molar Ellipticity TFE-Molar Ellipticity Benign” value was −17835.9 deg cm^2 dmol^−1.

In the case of `CC(=O)N[C@@H](CC(C)C)C(=O)N[C@H](C(=O)N[C@@H](Cc1ccc(F)c(F)c1)C(=O)N[C@]1(C)CCCCCC/C=C/CCC[C@@](C)(C(=O)N[C@@H](CO)C(=O)N[C@@H](C)C(=O)N[C@@H](C)C(N)=O)NC(=O)[C@H](CCC(C)C)NC(=O)[C@H](CCC(N)=O)NC(=O)[C@H](C)NC(=O)[C@H](Cc2c[nH]c3ccccc23)NC(=O)[C@H](Cc2ccc(O)cc2)NC(=O)[C@H](CCC(=O)O)NC1=O)[C@@H](C)O` [compound 160], the IC50 was […] on MDMX (competitive fluorescence polarization, MDMX, read-out: IC50 (MDMX)) and […] on MDM2 (competitive fluorescence polarization, MDM2, read-out: IC50 (MDM2)). Moreover, the Ki on MDMX (setting [2]) was […]; at MDM2 (setting [3]), […].

As to `CC(=O)N[C@@H](CC(C)C)C(=O)N[C@H](C(=O)N[C@@H](Cc1ccccc1)C(=O)N[C@]1(C)CCCCCCC=CCCC[C@@](C)(C(=O)N[C@@H](C)C(=O)N[C@@H](C)C(=O)N[C@@H](C)C(=O)N[C@@H](C)C(=O)N[C@H](C)C(N)=O)NC(=O)[C@H](CC(C)C)NC(=O)[C@H](CCC(N)=O)NC(=O)[C@H](C)NC(=O)[C@H](Cc2c[nH]c3ccccc23)NC(=O)[C@H](Cc2ccc(O)cc2)NC(=O)[C@H](C)NC1=O)[C@@H](C)O` [compound 233], in data set [1], the “Molar Ellipticity TFE-Molar Ellipticity Benign” value is on record as −18554.7 deg cm^2 dmol^−1.

With `CC(C)C[C@H](NC(=O)CN(C)C)C(=O)N[C@H](C(=O)N[C@@H](Cc1ccccc1)C(=O)N[C@]1(C)CCCCCC/C=C/CCC[C@@](C)(C(=O)N[C@@H](C)C(=O)N[C@@H](C)C(=O)N[C@@H](C)C(=O)N[C@@H](C)C(=O)N[C@@H](C)C(=O)N[C@H](C)C(N)=O)NC(=O)[C@H](CC(C)C)NC(=O)[C@H](CCC(N)=O)NC(=O)[C@H](C)NC(=O)[C@H](Cc2c[nH]c3ccccc23)NC(=O)[C@H](Cc2ccc(O)cc2)NC(=O)[C@H](C)NC1=O)[C@@H](C)O` [compound 437], on MDMX, the IC50 was 10 to 100 nM and the Ki lay in the range of 10 to 100 nM. For the same compound, on MDM2, the IC50 lay in the range of 10 to 100 nM and the Ki is below 10 nM.

For the compound `CC(=O)N[C@@H](CC(C)C)C(=O)N[C@H](C(=O)N[C@@H](Cc1ccccc1)C(=O)N[C@]1(C)CCCCCC/C=C/CCC[C@@](C)(C(=O)N[C@@H](C)C(=O)N[C@@H](C)C(=O)N[C@@H](C)C(=O)N[C@@H](C)C(=O)N[C@@H](C)C(=O)N[C@H](C)C(N)=O)NC(=O)[C@H](CC(C)C)NC(=O)[C@H](CCC(N)=O)NC(=O)[C@H](C)NC(=O)[C@H](Cc2c[nH]c3cc(Cl)ccc23)NC(=O)[C@H](Cc2ccc(O)cc2)NC(=O)[C@H](CCC(=O)O)NC1=O)[C@@H](C)O` [compound 555], the figures for the Ki at MDMX and on MDM2 were 10 to 100 nM and below 10 nM, respectively.

On to `CC(=O)N[C@@H](CC(C)C)C(=O)N[C@H](C(=O)N[C@@H](Cc1ccc(F)c(F)c1)C(=O)N[C@]1(C)CCCCCC/C=C/CCC[C@@](C)(C(=O)N[C@@H](C)C(=O)N[C@@H](C)C(=O)N[C@@H](C)C(=O)N[C@@H](C)C(=O)N[C@@H](C)C(=O)N[C@H](C)C(N)=O)NC(=O)[C@H](CC(C)C)NC(=O)[C@H](CCC(N)=O)NC(=O)[C@H](C)NC(=O)[C@H](Cc2c[nH]c3ccccc23)NC(=O)[C@H](Cc2ccc(O)cc2)NC(=O)[C@H](CCC(=O)O)NC1=O)[C@@H](C)O` [compound 558], for which the Ki on MDMX and at MDM2 was 10 to 100 nM each time.

`CC(=O)N[C@@H](CC(C)C)C(=O)N[C@H](C(=O)N[C@@H](Cc1ccccc1)C(=O)N[C@]1(C)CCCCCC/C=C/CCC[C@@](C)(C(=O)N[C@@H](C)C(=O)N[C@@H](C)C(=O)N[C@@H](C)C(=O)NC(C)(C)C(=O)N[C@@H](C)C(=O)N[C@H](C)C(N)=O)NC(=O)[C@H](CC(C)C)NC(=O)[C@H](CCC(N)=O)NC(=O)[C@H](C)NC(=O)[C@H](Cc2c[nH]c3ccccc23)NC(=O)[C@H](Cc2ccc(O)cc2)NC(=O)[C@H](CCC(=O)O)NC1=O)[C@@H](C)O` [compound 564] (Ac-LTF[R8]EYWAQL[S5]AAA[Aib]A[dA]-NH2; staple (E) 4-11): the inhibition constant (Ki) at MDMX (setting [2]) is 10 to 100 nM; on MDM2 (setting [3]), below 10 nM.

As for `CC(=O)N[C@@H](CC(C)C)C(=O)N[C@H](C(=O)N[C@@H](Cc1ccccc1)C(=O)N[C@]1(C)CCCCCC/C=C/CCC[C@@](C)(C(=O)N[C@@H](C)C(=O)N[C@@H](C)C(=O)N[C@@H](C)C(=O)N[C@@H](C)C(=O)N[C@@H](C)C(=O)NC(C)(C)C(N)=O)NC(=O)[C@H](CC(C)C)NC(=O)[C@H](CCC(N)=O)NC(=O)[C@H](C)NC(=O)[C@H](Cc2c[nH]c3ccccc23)NC(=O)[C@H](Cc2ccc(O)cc2)NC(=O)[C@H](CCC(=O)O)NC1=O)[C@@H](C)O` [compound 567], the Ki is 10 to 100 nM at MDMX (setting [2]) and below 10 nM on MDM2 (setting [3]).

Consider `CC(=O)N[C@@H](CC(C)C)C(=O)N[C@H](C(=O)N[C@@H](Cc1ccccc1)C(=O)N[C@]1(C)CCCCCC/C=C/CCC[C@@](C)(C(=O)N[C@@H](C)C(=O)N[C@@H](C)C(=O)N[C@@H](C)C(=O)N[C@@H](C)C(=O)N[C@@H](C)C(=O)N(C)CC(N)=O)NC(=O)[C@H](CC(C)C)NC(=O)[C@H](CCC(N)=O)NC(=O)[C@H](C)NC(=O)[C@H](Cc2c[nH]c3ccccc23)NC(=O)[C@H](Cc2ccc(O)cc2)NC(=O)[C@H](CCC(=O)O)NC1=O)[C@@H](C)O` [compound 578], for which the Ki on MDMX (setting [2]) was 10 to 100 nM; on MDM2 (setting [3]) it was below 10 nM.
